Consider one molecule from US20130102619A1, “2-PYRIDYLOXY-4-NITRILE OREXIN RECEPTOR ANTAGONISTS” (priority 2011, published 2013).

One may read the IC50 as the midpoint of a concentration-inhibition curve.

For assay [1], the target named is T1, human orexin-2 receptor (Homo sapiens (Human), UniProt O43614). Kind of assay: radioligand binding assay, orexin-2 receptor (membranes from CHO cells). The note with it: CHO cell membranes, read-out: hOX2 hKi. The protocol: (§1) The utility of the compounds in accordance with the present invention as orexin receptor OX1R and/or OX2R antagonists may be readily determined without undue experimentation by methodology well known in the art, including the “FLIPR Ca^2+ Flux Assay” (Okumura et al., Biochem. Biophys. Res. Comm. 280:976-981, 2001). In a typical experiment the OX1 and OX2 receptor antagonistic activity of the compounds of the present invention was determined in accordance with the following experimental method. For intracellular calcium measurements, Chinese hamster ovary (CHO) cells expressing the rat orexin-1 receptor or the human orexin-2 receptor, are grown in Iscove's modified DMEM containing 2 mM L-glutamine, […], 1% hypoxanthine-thymidine supplement, 100 U/ml penicillin, 100 ug/ml streptomycin and 10% heat-inactivated fetal calf serum (FCS). The cells are seeded at 20,000 cells/well into Becton-Dickinson black 384-well clear bottom sterile plates coated with poly-D-lysine. All reagents were from GIBCO-Invitrogen Corp. The seeded plates are incubated overnight at 37° C. and 5% CO2. Ala-6,12 human orexin-A as the agonist is prepared as a 1 mM stock solution in 1% bovine serum albumin (BSA) and diluted in assay buffer (HBSS containing 20 mM HEPES, 0.1% BSA and 2.5 mM probenecid, pH7.4) for use in the assay at a final concentration of 70 pM. Test compounds are prepared as 10 mM stock solution in DMSO, then diluted in 384-well plates, first in DMSO, then assay buffer. On the day of the assay, cells are washed 3 times with 100 ul assay buffer and then incubated for 60 min (37° C., 5% CO2) in 60 ul assay buffer containing 1 uM Fluo-4AM ester, 0.02% pluronic acid, and 1% BSA. The dye loading solution is then aspirated and cells are washed 3 times with 100 ul assay buffer. 30 ul of that same buffer is left in each well. Within the Fluorescent Imaging Plate Reader (FLIPR, Molecular Devices), test compounds are added to the plate in a volume of 25 ul, incubated for 5 min and finally 25 ul of agonist is added. Fluorescence is measured for each well at 1 second intervals for 5 minutes and the height of each fluorescence peak is compared to the height of the fluorescence peak induced by 70 pM Ala-6,12 orexin-A with buffer in place of antagonist. […] Alternatively, compound potency can be assessed by a radioligand binding assay (described in Bergman et. al. Bioorg. Med. Chem. Lett. 2008, 18, 1425-1430) in which the inhibition constant (Ki) is determined in membranes prepared from CHO cells expressing either the OX1 or OX2 receptor. The intrinsic orexin receptor antagonist activity of a compound which may be used in the present invention may be determined by these assays.
T1 sequence (O43614 whole entry): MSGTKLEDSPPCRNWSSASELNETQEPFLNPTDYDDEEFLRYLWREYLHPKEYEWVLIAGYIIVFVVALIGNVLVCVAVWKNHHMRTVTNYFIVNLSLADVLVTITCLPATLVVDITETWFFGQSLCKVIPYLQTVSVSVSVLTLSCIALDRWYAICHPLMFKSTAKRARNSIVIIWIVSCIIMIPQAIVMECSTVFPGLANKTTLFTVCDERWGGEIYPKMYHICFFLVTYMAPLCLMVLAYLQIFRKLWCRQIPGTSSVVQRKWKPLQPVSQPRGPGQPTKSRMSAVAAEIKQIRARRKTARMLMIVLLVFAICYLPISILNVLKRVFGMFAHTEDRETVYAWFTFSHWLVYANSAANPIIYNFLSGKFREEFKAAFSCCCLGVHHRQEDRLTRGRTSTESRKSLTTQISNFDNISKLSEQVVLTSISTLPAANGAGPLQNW

A further assay has as its target OX1 receptor (hOX1) (Homo sapiens, UniProt O43613). Kind of assay: radioligand binding assay, orexin-1 receptor (membranes from CHO cells). Particulars: CHO cell membranes, read-out: hOX1 hKi. The protocol:
In a typical experiment the OX1 and OX2 receptor antagonistic activity of the compounds of the present invention was determined in accordance with the following experimental method. For intracellular calcium measurements, Chinese hamster ovary (CHO) cells expressing the rat orexin-1 receptor or the human orexin-2 receptor, are grown in Iscove's modified DMEM containing 2 mM L-glutamine, […], 1% hypoxanthine-thymidine supplement, 100 U/ml penicillin, 100 ug/ml streptomycin and 10% heat-inactivated fetal calf serum (FCS). The cells are seeded at 20,000 cells/well into Becton-Dickinson black 384-well clear bottom sterile plates coated with poly-D-lysine. All reagents were from GIBCO-Invitrogen Corp. The seeded plates are incubated overnight at 37° C. and 5% CO2. Ala-6,12 human orexin-A as the agonist is prepared as a 1 mM stock solution in 1% bovine serum albumin (BSA) and diluted in assay buffer (HBSS containing 20 mM HEPES, 0.1% BSA and 2.5 mM probenecid, pH7.4) for use in the assay at a final concentration of 70 pM. Test compounds are prepared as 10 mM stock solution in DMSO, then diluted in 384-well plates, first in DMSO, then assay buffer. On the day of the assay, cells are washed 3 times with 100 ul assay buffer and then incubated for 60 min (37° C., 5% CO2) in 60 ul assay buffer containing 1 uM Fluo-4AM ester, 0.02% pluronic acid, and 1% BSA. The dye loading solution is then aspirated and cells are washed 3 times with 100 ul assay buffer. 30 ul of that same buffer is left in each well. Within the Fluorescent Imaging Plate Reader (FLIPR, Molecular Devices), test compounds are added to the plate in a volume of 25 ul, incubated for 5 min and finally 25 ul of agonist is added. Fluorescence is measured for each well at 1 second intervals for 5 minutes and the height of each fluorescence peak is compared to the height of the fluorescence peak induced by 70 pM Ala-6,12 orexin-A with buffer in place of antagonist. […] Alternatively, compound potency can be assessed by a radioligand binding assay (described in Bergman et. al. Bioorg. Med. Chem. Lett. 2008, 18, 1425-1430) in which the inhibition constant (Ki) is determined in membranes prepared from CHO cells expressing either the OX1 or OX2 receptor. The intrinsic orexin receptor antagonist activity of a compound which may be used in the present invention may be determined by these assays.

Assay [2] concerns the target T1, human orexin-2 receptor. The experiment in a line: FLIPR Ca2+ Flux Assay, CHO cells expressing human orexin-2 receptor. Type of assay: cell-based. Particulars: 70 pM Ala-6,12 orexin-A agonist, read-out: hOX2R FLIPR IC50. How it is done:
as §1
(In general: Calcium flux is commonly read through the fluorescence of an indicator in the cells.)

For the next assay, the target named is rat orexin-1 receptor (Rattus norvegicus (Rat), UniProt P56718). The experiment in a line: FLIPR Ca2+ Flux Assay, CHO cells expressing rat orexin-1 receptor.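 Also: concentration giving 50% inhibition of the agonist-induced calcium response.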 Type of assay: cell-based. Particulars: 70 pM Ala-6,12 orexin-A agonist, read-out: hOX1R FLIPR IC50. The protocol: as §1
Sequence of rat orexin-1 receptor (P56718 whole entry): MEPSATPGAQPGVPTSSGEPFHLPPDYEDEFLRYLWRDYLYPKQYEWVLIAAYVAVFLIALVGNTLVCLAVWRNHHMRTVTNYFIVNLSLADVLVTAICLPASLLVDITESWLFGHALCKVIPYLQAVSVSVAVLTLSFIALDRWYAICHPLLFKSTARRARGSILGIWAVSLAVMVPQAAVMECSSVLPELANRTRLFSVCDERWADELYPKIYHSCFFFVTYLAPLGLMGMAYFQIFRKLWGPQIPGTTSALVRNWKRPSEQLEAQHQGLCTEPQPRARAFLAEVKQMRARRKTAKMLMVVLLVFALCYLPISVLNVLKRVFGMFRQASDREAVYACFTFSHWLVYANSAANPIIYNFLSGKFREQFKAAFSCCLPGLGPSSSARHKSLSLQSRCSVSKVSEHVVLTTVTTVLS

The structures appear in SMILES notation.

Turning to `C[C@@H]1CC[C@@H](Oc2cc(C#N)ccn2)CN1C(=O)c1c(F)cccc1-c1ncccn1` [Example 36, 2-({(3R,6R)-1-[(2-fluoro-6-pyimidin-2-ylphenyl)carbonl]-6-methylpiperidin-3-yl}oxy)pyridine-4-carbonitrile], the results for the Ki at human orexin-2 receptor [1] and at OX1 receptor (hOX1) were 0.0021 µM and 0.93 µM, respectively. The figures for the concentration for half-maximal inhibition (IC50) at human orexin-2 receptor [2] and on rat orexin-1 receptor were 0.047 µM and above 10 µM, respectively.
